Source: BindingDB's records for doi:10.1111/j.1432-1033.1994.00489.x (Universit&Eacute, 1994)

Molecular target: Histamine H1 receptor (Cavia porcellus, UniProt P31389)
Sequence (P31389 whole entry): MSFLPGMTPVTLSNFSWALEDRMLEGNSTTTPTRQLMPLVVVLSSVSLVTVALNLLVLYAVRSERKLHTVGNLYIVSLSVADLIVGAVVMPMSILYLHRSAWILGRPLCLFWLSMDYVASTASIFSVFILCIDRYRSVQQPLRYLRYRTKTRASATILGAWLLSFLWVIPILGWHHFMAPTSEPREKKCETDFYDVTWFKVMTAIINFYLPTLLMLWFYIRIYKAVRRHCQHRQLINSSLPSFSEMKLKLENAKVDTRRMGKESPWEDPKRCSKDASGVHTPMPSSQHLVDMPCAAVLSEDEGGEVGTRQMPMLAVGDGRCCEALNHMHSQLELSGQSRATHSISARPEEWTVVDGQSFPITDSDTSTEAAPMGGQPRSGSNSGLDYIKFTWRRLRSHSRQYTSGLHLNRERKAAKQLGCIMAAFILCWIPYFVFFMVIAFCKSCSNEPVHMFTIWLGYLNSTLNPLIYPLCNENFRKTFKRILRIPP

`O=C(O)COCCN1CCN(C(c2ccccc2)c2ccc(Cl)cc2)CC1` (configuration not stated) was tested, and the Ki was 12.6 nM.

In the case of `Cc1ccc(/C(=C\CN2CCCC2)c2ccccn2)cc1` [Actahist], the Ki is reported as 0.31 nM.
